ChEMBL document CHEMBL1201862, “PubChem BioAssay data set” (2004)
Calls of active or inactive are those of the source.

Columns and labels:
[1] = biological target: T1, Scavenger receptor class B member 1 (Mus musculus, UniProt Q61009); assay: mouse SR-BI DiI-HDL uptake blockers – ldlA[mSR-BI] cells, fluorescence, cherry pick, dose response (AID 493194); type: functional, cell-based;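 also: cellular uptake of fluorescent DiI-labeled HDL measured as cell fluorescence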
T1 sequence (Q61009 whole entry): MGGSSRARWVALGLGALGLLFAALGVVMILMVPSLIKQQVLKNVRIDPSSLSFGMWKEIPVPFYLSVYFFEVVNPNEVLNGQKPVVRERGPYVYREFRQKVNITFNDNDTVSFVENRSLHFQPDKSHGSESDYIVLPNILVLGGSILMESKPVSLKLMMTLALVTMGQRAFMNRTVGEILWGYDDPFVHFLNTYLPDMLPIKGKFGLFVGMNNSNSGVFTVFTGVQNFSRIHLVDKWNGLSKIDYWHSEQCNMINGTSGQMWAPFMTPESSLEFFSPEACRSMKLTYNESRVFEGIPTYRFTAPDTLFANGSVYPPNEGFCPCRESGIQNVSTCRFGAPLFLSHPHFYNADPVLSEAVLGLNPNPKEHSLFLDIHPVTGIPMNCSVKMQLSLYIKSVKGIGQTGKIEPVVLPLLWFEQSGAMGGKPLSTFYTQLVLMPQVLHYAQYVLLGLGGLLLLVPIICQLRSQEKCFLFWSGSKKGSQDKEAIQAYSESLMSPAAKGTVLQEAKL

cells = type: functional
[2] = Vero E6 cell cytotoxicity, dose response, cytotoxicity control for non-replicating M. tuberculosis project, secondary assay (AID 492998); type: functional, VeroE6; settings: Vero C1008
[3] = HepG2 cell cytotoxicity, dose response, cytotoxicity control for non-replicating M. tuberculosis project (AID 489018); type: functional; settings: Mycobacterium tuberculosis
INS1 = assay: INS-1E survival protection against cytokine death – cell-based, luminescence, retest, dose response (AID 449756); type: functional; settings: Rattus norvegicus;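 also: cell death triggered by IL-1 beta plus TNF-alpha plus IFN-gamma mixture; protective hits raise ATP signal compared with cytokine alone wells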
[4] = THP-1 cell cytotoxicity, dose response, cytotoxicity control for non-replicating M. tuberculosis project (AID 489025); type: functional
Kallikrein-7 = Kallikrein-7 (Homo sapiens, UniProt P49862); assay: Fluorescence Intensity-based biochemical primary high throughput dose response assay to identify activators of kallikrein-7 (K7) zymogen.
Kallikrein-7, sequence (P49862 whole entry): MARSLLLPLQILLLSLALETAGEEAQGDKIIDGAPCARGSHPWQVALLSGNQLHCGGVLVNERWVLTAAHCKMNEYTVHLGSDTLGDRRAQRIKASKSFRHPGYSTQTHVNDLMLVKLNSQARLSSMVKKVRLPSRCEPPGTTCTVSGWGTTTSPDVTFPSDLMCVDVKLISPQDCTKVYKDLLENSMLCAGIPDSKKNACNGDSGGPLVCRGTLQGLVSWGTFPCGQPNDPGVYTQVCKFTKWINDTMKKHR

[5] = blockers of bursicon-stimulated LGR2 cAMP reporter – cell-based, HEK293, CRE-luciferase reporter, cherry pick, set 2, dose response (AID 743343); type: functional;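 also: transfected cells were stimulated with diluted bursicon conditioned medium after compound addition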
[6] = blockade of melanocortin 4 receptor signaling – cell-based, plate reader, cherry pick, counter-screen for LGR2 antagonist project, dose response (AID 743444); type: functional;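 also: transfected HEK 293 cells stimulated with alpha-MSH peptide; potency of inhibitors of the alpha-MSH evoked signal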
[7] = A549 cell cytotoxicity, dose response, cytotoxicity control, plate reader, cherry-pick, antagonist series (AID 743412); type: functional, cell-based
[8] = biological target: Induced myeloid leukemia cell differentiation protein Mcl-1 (Homo sapiens, UniProt Q07820); type: functional
Induced myeloid leukemia cell differentiation protein Mcl-1, sequence (Q07820 whole entry): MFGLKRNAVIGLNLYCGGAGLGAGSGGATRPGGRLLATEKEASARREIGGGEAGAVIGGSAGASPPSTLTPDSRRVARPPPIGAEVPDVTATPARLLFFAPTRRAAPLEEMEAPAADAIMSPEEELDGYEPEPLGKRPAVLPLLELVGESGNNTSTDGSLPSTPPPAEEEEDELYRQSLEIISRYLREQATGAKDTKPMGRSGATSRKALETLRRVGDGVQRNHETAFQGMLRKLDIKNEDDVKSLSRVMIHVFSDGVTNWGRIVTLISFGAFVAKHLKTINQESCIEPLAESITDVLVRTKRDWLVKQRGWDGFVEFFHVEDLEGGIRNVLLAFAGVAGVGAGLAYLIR

[9] = toxicity toward HepG2 liver cells – cell-based, plate reader, cherry-pick, antagonist series, cytotoxicity control, dose response (AID 743416); type: functional
Paired box protein Pax-8 = Paired box protein Pax-8 (Homo sapiens, UniProt Q06710); assay: PAX8 transcriptional activity inhibition in RMG-I – RMG-I cells, luciferase, cherry-pick, dose response (AID 687027); type: functional, cell-based;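 also: luciferase reporter driven by Pax8 target thyroperoxidase promoter measured by SteadyGlo luminescence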
Paired box protein Pax-8, sequence (Q06710 whole entry): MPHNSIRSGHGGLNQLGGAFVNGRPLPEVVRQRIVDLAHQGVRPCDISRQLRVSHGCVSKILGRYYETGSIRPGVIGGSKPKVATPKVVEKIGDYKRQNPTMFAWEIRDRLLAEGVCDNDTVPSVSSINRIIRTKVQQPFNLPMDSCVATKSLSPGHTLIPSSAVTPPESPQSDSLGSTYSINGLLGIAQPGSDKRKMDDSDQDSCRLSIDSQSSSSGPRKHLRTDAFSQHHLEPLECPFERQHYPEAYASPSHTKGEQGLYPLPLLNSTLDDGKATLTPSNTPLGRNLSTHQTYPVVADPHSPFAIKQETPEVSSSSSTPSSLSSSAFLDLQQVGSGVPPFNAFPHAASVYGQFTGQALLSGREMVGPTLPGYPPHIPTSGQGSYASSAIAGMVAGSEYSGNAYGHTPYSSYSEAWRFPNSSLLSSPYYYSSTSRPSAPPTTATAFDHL

[10] = viability loss in HEK293 cells – cell-based, plate reader, cherry-picked samples, cytotoxicity control, dose response (AID 743446); type: functional
[11] = viability of HCT116 lacking mutant beta-catenin – cell-based, human colon tumor, dose response (AID 1045); type: functional;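 also: HCT116 colon tumor cells with beta catenin knocked out; cells exposed to compound for 60 hours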
X-box-binding protein 1 = biological target: T2, X-box-binding protein 1 (Homo sapiens, UniProt P17861); type: functional, Cricetulus griseus;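 also: confirmatory dose-response counter-screen serving a CHOP assay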
T2 sequence (P17861 whole entry): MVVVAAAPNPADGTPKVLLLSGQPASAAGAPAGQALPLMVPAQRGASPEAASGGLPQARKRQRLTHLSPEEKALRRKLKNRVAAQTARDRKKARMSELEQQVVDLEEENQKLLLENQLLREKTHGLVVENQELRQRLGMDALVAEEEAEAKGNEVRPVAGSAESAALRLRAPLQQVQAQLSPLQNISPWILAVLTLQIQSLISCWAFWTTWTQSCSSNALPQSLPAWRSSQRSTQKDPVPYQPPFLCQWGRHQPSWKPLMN

[12] = test system: Streptococcus sp. 'group A'; assay: Streptococcus pyogenes SK(-)GAS viability under kanamycin – luminescence, BacTiterGlo, confirmation, counter-screen for streptokinase expression inhibitor project, dose response (AID 1900); type: functional, organism-based
Streptococcus = assay: GAS UMAA2166 growth inhibition – luminescence, BacTiterGlo, counter-screen for streptokinase expression inhibitor project, dose response (AID 1915); type: functional, organism-based;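 also: potency for reduction of bacterial viability or growth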
[13] = Luminescence Cell-Based Dose Retest to Confirm Inhibitors of Cancer Stem Cells. [Related pubchem assays (depositor defined):AID2717, AID2721]; type: functional, Homo sapiens; settings: Homo sapiens
[14] = viability of PTEN-deleted HCT116 cells – cell-based, HCT116 PTEN knockout, dose response (AID 1047); type: functional;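 also: HCT116 colon tumor cells with PTEN knocked out; cells exposed to compound for 60 hours before readout; potency for loss of cell viability measured by luminescence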
[15] = biological target: Voltage-gated N-type calcium channel alpha-1B subunit/Amyloid beta A4 precursor protein-binding family A member 1 (Homo sapiens, UniProt Q00975+Q02410); assay: disruptors of Mint-PDZ/N-type channel peptide interaction – biochemical, HTRF, SAR follow-up (AID 2489); type: functional
Voltage-gated N-type calcium channel alpha-1B subunit/Amyloid beta A4 precursor protein-binding family A member 1, sequence (Q00975 whole entry): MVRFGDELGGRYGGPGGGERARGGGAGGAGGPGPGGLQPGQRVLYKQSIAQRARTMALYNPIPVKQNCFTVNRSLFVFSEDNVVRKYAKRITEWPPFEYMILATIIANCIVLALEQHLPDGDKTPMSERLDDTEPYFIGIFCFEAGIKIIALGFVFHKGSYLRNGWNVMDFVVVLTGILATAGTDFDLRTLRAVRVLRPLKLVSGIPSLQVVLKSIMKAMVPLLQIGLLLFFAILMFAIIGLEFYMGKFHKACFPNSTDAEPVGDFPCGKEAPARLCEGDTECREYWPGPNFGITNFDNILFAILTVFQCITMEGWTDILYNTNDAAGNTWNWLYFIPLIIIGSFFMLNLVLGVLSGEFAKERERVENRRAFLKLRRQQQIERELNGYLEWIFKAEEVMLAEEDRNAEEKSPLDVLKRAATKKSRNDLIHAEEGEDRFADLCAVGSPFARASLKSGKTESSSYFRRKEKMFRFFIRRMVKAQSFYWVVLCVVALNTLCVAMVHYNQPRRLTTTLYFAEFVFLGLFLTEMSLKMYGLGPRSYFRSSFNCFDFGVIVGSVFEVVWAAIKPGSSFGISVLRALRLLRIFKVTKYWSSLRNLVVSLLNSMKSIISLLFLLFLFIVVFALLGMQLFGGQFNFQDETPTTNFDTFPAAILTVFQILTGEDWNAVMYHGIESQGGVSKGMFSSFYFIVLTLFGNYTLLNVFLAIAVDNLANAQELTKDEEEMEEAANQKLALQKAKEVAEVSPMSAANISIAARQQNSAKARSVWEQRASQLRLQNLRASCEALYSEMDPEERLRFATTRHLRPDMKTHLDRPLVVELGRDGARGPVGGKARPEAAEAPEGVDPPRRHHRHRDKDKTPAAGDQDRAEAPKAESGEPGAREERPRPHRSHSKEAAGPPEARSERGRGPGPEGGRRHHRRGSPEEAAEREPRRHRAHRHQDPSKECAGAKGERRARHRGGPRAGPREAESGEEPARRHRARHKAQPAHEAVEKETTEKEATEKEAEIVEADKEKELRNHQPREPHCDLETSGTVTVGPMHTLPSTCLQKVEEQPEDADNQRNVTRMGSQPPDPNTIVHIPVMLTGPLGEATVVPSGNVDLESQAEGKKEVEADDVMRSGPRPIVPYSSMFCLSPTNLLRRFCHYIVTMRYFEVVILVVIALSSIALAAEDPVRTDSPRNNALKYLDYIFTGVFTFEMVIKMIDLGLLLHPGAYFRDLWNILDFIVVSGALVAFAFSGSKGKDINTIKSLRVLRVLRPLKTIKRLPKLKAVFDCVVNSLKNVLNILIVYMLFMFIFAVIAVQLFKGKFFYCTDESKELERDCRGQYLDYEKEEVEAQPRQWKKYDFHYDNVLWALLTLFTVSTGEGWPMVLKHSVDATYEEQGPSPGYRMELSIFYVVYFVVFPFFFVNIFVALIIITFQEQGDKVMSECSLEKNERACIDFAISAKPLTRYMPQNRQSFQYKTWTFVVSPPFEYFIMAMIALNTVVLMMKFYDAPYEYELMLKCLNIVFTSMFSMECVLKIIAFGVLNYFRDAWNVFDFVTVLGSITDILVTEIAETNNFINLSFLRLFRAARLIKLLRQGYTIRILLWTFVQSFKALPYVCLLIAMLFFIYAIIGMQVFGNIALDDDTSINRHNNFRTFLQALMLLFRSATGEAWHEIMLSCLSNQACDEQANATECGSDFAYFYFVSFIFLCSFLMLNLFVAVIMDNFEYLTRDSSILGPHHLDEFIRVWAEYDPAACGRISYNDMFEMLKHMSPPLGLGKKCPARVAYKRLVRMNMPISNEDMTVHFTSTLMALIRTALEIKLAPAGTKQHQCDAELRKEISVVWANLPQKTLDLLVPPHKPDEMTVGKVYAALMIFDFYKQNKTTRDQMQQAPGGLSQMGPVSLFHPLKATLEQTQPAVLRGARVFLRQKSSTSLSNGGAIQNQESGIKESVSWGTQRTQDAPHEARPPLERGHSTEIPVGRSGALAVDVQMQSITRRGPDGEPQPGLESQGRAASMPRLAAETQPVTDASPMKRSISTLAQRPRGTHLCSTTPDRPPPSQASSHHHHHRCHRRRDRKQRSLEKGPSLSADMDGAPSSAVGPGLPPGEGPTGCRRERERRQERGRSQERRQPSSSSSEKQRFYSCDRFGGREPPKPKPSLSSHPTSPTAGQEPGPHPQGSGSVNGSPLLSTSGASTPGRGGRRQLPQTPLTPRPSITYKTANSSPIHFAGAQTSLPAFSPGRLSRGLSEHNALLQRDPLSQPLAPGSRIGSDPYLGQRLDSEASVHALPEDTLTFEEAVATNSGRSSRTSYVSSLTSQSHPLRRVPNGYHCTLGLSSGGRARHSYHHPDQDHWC
Voltage-gated N-type calcium channel alpha-1B subunit/Amyloid beta A4 precursor protein-binding family A member 1, sequence (Q02410 whole entry): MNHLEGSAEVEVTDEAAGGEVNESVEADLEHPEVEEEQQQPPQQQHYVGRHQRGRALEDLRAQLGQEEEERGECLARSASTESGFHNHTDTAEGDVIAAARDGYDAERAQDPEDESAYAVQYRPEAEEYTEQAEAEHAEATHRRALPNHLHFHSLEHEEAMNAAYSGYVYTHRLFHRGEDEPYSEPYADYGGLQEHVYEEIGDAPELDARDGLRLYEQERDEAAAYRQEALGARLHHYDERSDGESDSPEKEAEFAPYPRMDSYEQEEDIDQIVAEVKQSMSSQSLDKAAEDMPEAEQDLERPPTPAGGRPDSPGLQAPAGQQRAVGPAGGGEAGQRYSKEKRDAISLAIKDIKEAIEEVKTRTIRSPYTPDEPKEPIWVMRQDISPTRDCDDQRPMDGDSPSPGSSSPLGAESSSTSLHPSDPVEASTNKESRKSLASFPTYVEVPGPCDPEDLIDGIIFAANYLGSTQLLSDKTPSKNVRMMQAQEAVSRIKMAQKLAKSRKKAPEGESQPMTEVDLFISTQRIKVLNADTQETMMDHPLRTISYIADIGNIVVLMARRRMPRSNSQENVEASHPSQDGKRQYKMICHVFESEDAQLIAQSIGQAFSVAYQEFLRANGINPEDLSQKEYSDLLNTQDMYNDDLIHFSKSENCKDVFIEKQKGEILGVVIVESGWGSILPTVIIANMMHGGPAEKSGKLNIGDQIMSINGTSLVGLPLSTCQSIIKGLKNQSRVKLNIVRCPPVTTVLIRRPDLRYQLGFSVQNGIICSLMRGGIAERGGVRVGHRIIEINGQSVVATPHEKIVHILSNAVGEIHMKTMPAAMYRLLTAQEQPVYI

CCOc1ccc(NC(=O)CN2CCN(CC(=O)Nc3cc(OC)cc(OC)c3)CC2)cc1
AC50 [1]: 0.414 µM (active)

Cc1cc(N2CCC(C)CC2)nc(NCc2ccccc2)n1
IC50 (cells): 45.4 µM (active) | CC50 [2]: > 20 µM (active) | CC50 [3]: > 20 µM (active) | AC50 (INS1): 5.93 µM (active) | CC50 [4]: 13.4 µM (active)

CCC(=O)N1CCc2cc(-c3csc(NC(=O)c4ccco4)n3)ccc21
EC50 (Kallikrein-7): 10.5 µM (inactive) | AC50 [1]: 0.109 µM (active)

O=C(Nc1cccc(Cl)c1)Nc1nnc(-c2ccncc2)s1
IC50 (cells): > 50 µM (active) | AC50 [5]: 3.28 µM (active) | CC50 [2]: > 20 µM (active) | CC50 [3]: 9.96 µM (active) | AC50 [6]: 6.08 µM (active) | AC50 [7]: 17.3 µM (active) | IC50 [8]: 3.12 µM (active) | AC50 (INS1): 4.54 µM (active) | AC50 [9]: 8.34 µM (active) | AC50 (Paired box protein Pax-8): 2.97 µM (active) | CC50 [4]: 6.34 µM (active) | AC50 [10]: 15.5 µM (active)

COC(=O)c1[nH]c2cc(OC)ccc2c1NC(=O)c1ccc2c(c1)OCO2
AC50 [1]: 17.8 µM (active)

CCNC(=O)c1c(NC(=O)c2cc(-c3cc(C)ccc3O)[nH]n2)sc2c1CCCC2
EC50 [11]: 15 µM (active) | Absolute IC50 (XBP1) (X-box-binding protein 1): 10 µM | EC50 [12]: 2.5 µM (active) | EC50 (Streptococcus): 7.09 µM (active) | AC50 [13]: 5.2 µM (active) | EC50 [14]: 11.3 µM (active)

CC(/C=C/c1ccco1)=NNC(=O)c1cc(C)[nH]n1
IC50 [15]: > 56.8 µM (inactive)
